# Results as given in PubChem BioAssay AID2305 (GlaxoSmithKline (GSK), 2010).
# Tested on: P. falciparum 3D7 growth, pLDH absorbance
# Experiment: P. falciparum 3D7 growth inhibition, dose response, strain 3D7 (AID 2305)
row,SMILES,IC50
1,CN1CC=C(c2c[nH]c3ccc(C(=O)c4nccs4)cc23)CC1,240 nM
2,CC(=O)c1ccc(NC(=O)CSc2nc(-c3ccccc3Cl)ns2)cc1,1130 nM
3,Cc1ccc2[nH]ncc2c1N(CC1CCCCC1)c1ccnc(Nc2ccc(OCC(O)CN3CC=CCC3)cc2)n1 (stereo not given),620 nM
4,CC(C)Sc1nc2c(c(=O)n1CCc1ccccc1)C1(CCCCC1)Cc1ccccc1-2,1870 nM
5,O=C(Nc1ccc(Cn2ncc(N3CCCNCC3)c(Cl)c2=O)cc1)Nc1ccc(SC(F)(F)F)cc1,530 nM
6,Cc1cnc(Nc2ccccc2)nc1NCCC(=O)Nc1ccccc1,1160 nM
7,Cc1nc(-c2nc(NCCc3cnccn3)ncc2-c2ccsc2)sc1C,880 nM
8,N#Cc1cc(C(=O)c2cc(Cl)ccc2O)cn(-c2cccc(C(F)(F)F)c2)c1=O,1130 nM
9,Cc1cccc2[nH]c(-c3cccc(-c4ccc(CN5CCN(CCO)CC5)cc4)c3)nc12,820 nM
10,N#Cc1ccc(CNCCCCCCCNCc2ccc(-c3ccccc3)cc2)cc1,970 nM
11,COc1ccc2nc(C)cc(NCc3cccc4ccccc34)c2c1,220 nM
12,COc1cccc(NC(=O)c2ccc(NCCCN3CCC(C)CC3)c([N+](=O)[O-])c2)c1,770 nM
13,CCCCCCC(N)c1ccc(OCCCOc2ccc(C(N)CCCCCC)cc2)cc1 (stereo not given),1140 nM
14,Cn1nc(C(F)(F)F)c(-c2ccc(F)cc2)c1NC(=O)Nc1ccccc1,800 nM
15,Nc1cccc(CNCc2ccc(-c3ccc(-c4nc5ccc(F)cc5[nH]4)s3)cc2)c1,990 nM
16,COc1cc(C(=O)NCCCN2CCN(c3cc(Cl)ccc3OC)CC2)ccc1-c1nc2cc(Cl)c(Cl)cc2[nH]1,730 nM
17,CC[C@H]1CN(CCCC(=O)c2ccccc2)CC[C@H]1CCCc1ccnc2ccc(OC(=O)c3ccccc3)cc12,830 nM
18,COc1ccc2ncc(F)c(CCN3CCC4(CC3)COC(c3cc5c(cn3)OCCO5)=N4)c2n1,220 nM
19,Oc1ccc(CCNc2nc(NCc3ccccc3-c3ccc(C(F)(F)F)cc3)nc(N3CCNCC3)n2)cc1,870 nM
20,Cc1ccc(C(=O)Nc2ccc(Nc3ccnc4cc(-c5nccs5)ccc34)cc2O)cc1,50 nM

row,SMILES,IC50
1,Cc1ccc(NC(=O)Cc2noc(CC3CCCN3C(=O)N[C@@H](C)c3ccccc3)n2)cc1 (stereo not given in full),370 nM
2,c1ccc2c(NCCCCCCCCNc3ccnc4ccccc34)ccnc2c1,160 nM
3,FC(F)(F)c1ccc2nc(-c3ccc(-c4cccc(CNCCN5CCNCC5)c4)s3)[nH]c2c1,1040 nM
4,O=C(Nc1ccc(Cl)cc1)Nc1nc2ccc([N+](=O)[O-])cc2[nH]1,800 nM
5,COc1ccc(OC)c(Cc2cnc3nc(N)nc(N)c3c2C)c1,10 nM
6,Cc1c2ccc(N(C)c3ccnc(Nc4ccc5c(c4)nc(NC(C)C)n5C)n3)cc2nn1C,160 nM
7,CN(C)CCOc1ccc(-c2cc(-c3ccc(Cl)c(O)c3)c(-c3ccncc3)[nH]2)cc1,580 nM
8,Cc1cc(NCCC(=O)Nc2ccccc2)nc(NCC2CCCCC2)n1,840 nM
9,Cn1c2ccccc2c2c3ccccc3c(CNC(CO)(CO)CO)cc21,520 nM
10,COc1ccc(NC2=C(c3ccccc3)C(=O)c3ccccc32)cn1,710 nM
11,O=C(/C=C/c1ccc(Cl)cc1)NCCCCCN1CCCC(C(=O)Nc2ccc(F)c(Cl)c2)C1 (stereo not given),1120 nM
12,COc1ccc2nc(C)cc(Nc3ccc(Oc4ccc(Cl)cc4)c(Cl)c3)c2c1,190 nM
13,c1ccc(Nc2nc(-c3ccccn3)cs2)nc1,1150 nM
14,O=c1ccc2ncc(Cl)c3c2n1CC3CN1CCC(NCc2cc3c(cn2)OCCO3)CC1 (stereo not given),960 nM
15,CS(=O)(=O)N1CC2(CCN(CCC(NC(=O)/C=C/c3ccccc3)c3ccc(Cl)c(Cl)c3)CC2)c2ccccc21 (stereo not given),780 nM
16,Cc1cc(NCc2ccccc2)nc2cc(O)ccc12,780 nM
17,O=[N+]([O-])c1cccc(S(=O)(=O)N2CCN(CC(O)COc3ccc(-c4ccccc4)cc3)CC2)c1 (stereo not given),1360 nM
18,CCOc1cc(C(=O)NCC2CCN(CC3CCCCC3)CC2)ccc1-c1nc2ccc(Cl)cc2[nH]1,560 nM
19,O=C(CCc1cnc[nH]1)Nc1ccc(-c2ccc(-c3nc4ccc(F)cc4[nH]3)cc2)cc1,690 nM
20,O=C(Nc1ccc(Cl)cc1)Nc1cccc(-c2cccc(-c3nc4ccccc4[nH]3)c2)c1,130 nM
